One compound from ChEMBL document CHEMBL5291721, “A preclinical secondary pharmacology resource illuminates target-adverse drug reaction associations of marketed drugs” (Nat Commun, 2023) can be followed below.

Some results are limits rather than exact numbers.

In assay [1] the target is T1, Muscarinic acetylcholine receptor M2 (Homo sapiens, UniProt P08172).
T1 sequence (P08172 whole entry): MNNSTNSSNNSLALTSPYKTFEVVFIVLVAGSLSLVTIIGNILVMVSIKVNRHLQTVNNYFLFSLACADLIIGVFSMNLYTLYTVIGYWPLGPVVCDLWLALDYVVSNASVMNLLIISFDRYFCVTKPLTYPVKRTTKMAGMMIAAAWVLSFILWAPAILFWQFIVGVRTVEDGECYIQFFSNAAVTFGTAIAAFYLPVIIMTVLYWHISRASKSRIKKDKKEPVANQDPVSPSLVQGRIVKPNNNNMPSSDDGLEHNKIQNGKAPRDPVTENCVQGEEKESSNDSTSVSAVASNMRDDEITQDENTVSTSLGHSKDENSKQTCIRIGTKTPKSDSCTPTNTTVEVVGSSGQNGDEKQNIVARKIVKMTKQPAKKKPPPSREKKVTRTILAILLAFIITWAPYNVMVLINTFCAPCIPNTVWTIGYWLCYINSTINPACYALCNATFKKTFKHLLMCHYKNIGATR

The target in assay [2] is Prostaglandin G/H synthase 1 (Homo sapiens, UniProt P23219). In kind it is functional.
Prostaglandin G/H synthase 1, sequence (P23219 whole entry): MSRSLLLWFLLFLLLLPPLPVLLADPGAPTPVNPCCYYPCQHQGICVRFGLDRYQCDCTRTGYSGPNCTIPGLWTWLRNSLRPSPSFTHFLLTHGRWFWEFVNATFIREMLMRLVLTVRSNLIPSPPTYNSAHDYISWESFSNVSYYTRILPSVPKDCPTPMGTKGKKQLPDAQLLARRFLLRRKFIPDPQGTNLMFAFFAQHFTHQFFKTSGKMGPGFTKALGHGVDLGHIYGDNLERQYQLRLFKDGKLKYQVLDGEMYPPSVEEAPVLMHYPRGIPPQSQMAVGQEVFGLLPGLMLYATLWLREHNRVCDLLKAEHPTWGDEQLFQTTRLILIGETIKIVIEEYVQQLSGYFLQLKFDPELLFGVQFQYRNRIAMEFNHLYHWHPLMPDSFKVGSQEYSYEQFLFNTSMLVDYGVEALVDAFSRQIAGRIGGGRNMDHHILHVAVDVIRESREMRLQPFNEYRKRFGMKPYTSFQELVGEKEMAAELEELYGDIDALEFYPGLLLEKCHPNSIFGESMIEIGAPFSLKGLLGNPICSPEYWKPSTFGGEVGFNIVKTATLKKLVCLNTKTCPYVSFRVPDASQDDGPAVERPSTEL
Assay [3] has as its target Sodium-dependent noradrenaline transporter (Homo sapiens, UniProt P23975).
For assay [4], the target named is T2, Alpha-1A adrenergic receptor (Homo sapiens, UniProt P35348).
T2 sequence (P35348 whole entry): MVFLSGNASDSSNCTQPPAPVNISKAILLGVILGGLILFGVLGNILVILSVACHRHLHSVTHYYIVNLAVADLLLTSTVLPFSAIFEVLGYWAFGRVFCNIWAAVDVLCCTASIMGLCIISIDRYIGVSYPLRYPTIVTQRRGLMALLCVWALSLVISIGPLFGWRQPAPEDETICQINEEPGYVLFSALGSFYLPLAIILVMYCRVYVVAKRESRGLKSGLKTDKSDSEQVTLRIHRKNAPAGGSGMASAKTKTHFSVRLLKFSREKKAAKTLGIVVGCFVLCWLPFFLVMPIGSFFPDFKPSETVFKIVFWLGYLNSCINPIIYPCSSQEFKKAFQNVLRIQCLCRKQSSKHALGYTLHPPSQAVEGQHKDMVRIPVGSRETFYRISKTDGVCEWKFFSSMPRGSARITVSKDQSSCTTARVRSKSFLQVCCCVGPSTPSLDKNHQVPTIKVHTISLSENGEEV
The class given is functional, cell-based.

Assay [5] deals with T3, Amine oxidase [flavin-containing] A (Homo sapiens, UniProt P21397).
T3 sequence (P21397 whole entry): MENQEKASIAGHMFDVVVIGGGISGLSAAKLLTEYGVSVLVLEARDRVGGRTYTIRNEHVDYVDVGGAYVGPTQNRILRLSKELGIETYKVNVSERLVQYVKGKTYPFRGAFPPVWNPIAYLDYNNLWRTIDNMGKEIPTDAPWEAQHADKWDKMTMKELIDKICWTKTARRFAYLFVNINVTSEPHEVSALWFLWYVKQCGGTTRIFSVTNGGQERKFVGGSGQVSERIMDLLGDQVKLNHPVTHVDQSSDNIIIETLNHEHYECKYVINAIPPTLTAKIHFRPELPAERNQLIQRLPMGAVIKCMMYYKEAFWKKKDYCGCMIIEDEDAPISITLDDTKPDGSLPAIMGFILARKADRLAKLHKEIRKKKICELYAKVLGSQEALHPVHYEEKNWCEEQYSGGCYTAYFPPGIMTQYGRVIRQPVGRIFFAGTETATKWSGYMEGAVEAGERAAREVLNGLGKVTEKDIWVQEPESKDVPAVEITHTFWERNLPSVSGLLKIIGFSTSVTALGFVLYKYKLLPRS
In kind it is functional.

In assay [6] the target is T4, Thromboxane A2 receptor (Homo sapiens, UniProt P21731).
T4 sequence (P21731 whole entry): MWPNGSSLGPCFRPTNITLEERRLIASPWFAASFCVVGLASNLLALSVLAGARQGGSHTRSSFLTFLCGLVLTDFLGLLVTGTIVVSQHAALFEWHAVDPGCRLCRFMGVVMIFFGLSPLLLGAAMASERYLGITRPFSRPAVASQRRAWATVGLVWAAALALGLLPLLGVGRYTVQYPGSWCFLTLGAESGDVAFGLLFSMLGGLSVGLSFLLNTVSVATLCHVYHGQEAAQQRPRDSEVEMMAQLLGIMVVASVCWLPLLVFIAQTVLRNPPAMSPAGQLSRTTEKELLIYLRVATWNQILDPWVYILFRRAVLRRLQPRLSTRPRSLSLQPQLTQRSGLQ
In kind it is functional, cell-based.

For assay [7], the target named is cGMP-inhibited 3',5'-cyclic phosphodiesterase 3A (Homo sapiens, UniProt Q14432). In kind it is functional.
cGMP-inhibited 3',5'-cyclic phosphodiesterase 3A, sequence (Q14432 whole entry): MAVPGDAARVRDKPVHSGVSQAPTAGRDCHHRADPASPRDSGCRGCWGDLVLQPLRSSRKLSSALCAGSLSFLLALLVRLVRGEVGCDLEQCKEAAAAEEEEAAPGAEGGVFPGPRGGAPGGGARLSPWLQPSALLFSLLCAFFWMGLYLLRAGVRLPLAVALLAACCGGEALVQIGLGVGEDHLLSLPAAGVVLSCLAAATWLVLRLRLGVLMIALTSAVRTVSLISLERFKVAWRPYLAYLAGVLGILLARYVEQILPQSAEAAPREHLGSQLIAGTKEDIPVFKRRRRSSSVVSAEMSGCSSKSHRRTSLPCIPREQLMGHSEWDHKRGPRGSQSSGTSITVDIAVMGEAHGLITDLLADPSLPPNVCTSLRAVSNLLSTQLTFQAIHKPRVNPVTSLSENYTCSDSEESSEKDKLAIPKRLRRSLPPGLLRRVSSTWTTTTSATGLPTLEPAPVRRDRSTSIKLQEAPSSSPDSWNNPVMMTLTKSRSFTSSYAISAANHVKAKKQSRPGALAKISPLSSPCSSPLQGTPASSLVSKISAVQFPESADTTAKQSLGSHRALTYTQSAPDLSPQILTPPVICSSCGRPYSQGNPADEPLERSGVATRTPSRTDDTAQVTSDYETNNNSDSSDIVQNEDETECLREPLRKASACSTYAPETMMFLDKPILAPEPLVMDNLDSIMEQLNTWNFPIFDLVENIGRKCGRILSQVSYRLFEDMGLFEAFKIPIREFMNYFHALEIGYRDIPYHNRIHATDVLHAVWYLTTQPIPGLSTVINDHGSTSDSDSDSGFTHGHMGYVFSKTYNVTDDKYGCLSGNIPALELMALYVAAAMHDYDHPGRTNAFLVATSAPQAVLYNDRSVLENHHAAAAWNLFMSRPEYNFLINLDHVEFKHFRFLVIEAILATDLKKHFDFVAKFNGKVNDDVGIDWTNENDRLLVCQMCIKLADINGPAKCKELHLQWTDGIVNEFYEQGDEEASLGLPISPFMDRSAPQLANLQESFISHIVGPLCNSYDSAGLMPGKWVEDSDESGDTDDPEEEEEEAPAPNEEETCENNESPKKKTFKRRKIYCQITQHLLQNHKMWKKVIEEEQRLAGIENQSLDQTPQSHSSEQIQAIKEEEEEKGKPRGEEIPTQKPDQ
Assay [8] has as its target T5, Progesterone receptor (Homo sapiens, UniProt P06401).
T5 sequence (P06401 whole entry): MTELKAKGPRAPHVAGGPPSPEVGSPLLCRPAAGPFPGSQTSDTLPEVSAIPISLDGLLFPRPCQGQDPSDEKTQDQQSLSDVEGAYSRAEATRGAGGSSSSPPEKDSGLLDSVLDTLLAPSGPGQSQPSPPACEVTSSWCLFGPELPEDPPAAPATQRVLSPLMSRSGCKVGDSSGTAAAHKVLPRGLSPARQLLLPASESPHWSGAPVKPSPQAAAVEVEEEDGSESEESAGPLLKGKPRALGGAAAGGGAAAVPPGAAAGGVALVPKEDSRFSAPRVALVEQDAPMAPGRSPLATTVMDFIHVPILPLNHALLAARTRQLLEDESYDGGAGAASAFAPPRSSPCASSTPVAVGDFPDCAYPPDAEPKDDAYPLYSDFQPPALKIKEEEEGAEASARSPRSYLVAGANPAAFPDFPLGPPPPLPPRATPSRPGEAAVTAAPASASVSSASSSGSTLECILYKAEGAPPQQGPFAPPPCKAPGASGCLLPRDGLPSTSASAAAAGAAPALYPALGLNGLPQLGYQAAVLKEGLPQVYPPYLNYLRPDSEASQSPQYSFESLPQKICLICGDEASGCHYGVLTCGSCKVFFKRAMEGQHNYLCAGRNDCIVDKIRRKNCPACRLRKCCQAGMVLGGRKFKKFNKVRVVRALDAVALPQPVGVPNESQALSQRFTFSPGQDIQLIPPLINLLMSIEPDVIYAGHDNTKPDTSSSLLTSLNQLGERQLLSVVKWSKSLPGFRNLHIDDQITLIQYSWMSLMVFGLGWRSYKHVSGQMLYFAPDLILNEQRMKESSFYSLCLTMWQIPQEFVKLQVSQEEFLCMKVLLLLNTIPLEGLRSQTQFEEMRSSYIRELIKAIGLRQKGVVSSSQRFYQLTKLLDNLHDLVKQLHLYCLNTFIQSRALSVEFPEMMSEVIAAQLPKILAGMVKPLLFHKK

For assay [9], the target named is Acetylcholinesterase (Homo sapiens, UniProt P22303). The class given is functional.
Acetylcholinesterase, sequence (P22303 whole entry): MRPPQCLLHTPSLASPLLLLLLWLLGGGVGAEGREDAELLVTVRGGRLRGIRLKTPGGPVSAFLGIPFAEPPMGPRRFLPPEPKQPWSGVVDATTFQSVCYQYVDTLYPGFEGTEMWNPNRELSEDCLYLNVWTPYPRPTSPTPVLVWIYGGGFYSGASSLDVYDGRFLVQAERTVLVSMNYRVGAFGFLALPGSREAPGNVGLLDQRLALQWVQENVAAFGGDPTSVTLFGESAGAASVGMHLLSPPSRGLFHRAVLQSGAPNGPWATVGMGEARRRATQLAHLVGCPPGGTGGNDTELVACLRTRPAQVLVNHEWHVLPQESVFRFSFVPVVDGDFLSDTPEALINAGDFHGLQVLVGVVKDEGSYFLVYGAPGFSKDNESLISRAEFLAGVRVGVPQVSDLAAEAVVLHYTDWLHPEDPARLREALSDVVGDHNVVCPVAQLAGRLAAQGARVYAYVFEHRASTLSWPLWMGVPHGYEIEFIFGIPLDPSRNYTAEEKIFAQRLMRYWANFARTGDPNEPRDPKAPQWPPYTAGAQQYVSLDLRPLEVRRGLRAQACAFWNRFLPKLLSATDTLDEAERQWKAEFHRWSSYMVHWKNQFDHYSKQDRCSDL
Also: assay procedure not described here.

Sodium-dependent noradrenaline transporter, sequence (P23975 whole entry): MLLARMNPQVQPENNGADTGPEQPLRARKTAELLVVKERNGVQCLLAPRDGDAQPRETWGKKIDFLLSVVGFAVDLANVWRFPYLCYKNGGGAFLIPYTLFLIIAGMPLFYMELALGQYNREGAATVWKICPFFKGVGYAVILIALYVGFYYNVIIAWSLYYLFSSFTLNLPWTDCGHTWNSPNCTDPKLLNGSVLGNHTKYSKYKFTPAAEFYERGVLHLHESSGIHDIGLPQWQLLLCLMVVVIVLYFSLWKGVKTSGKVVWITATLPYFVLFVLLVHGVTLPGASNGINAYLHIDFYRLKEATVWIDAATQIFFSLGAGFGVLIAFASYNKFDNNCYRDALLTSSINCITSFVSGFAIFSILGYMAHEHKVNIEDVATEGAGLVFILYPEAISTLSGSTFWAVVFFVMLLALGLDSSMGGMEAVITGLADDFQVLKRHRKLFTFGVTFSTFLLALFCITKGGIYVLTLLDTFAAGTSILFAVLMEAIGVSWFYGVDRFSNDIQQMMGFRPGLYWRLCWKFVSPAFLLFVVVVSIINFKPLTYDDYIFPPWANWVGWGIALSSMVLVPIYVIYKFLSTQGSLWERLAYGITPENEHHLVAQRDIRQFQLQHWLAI

In the case of `CCC1(c2cccc(O)c2)CCCCN(C)C1` (centres undefined) [MEPTAZINOL], the AC50 in assay [1] is 20.9 µM; in assay [2], greater than 30 µM; in assay [3] it was greater than 30 µM; in assay [4], greater than 30 µM; in assay [5] it was greater than 30 µM; in [6] it was greater than 30 µM. In addition, the figures for the AC50 in assay [7], in assay [8] and in assay [9] were greater than 30 µM, greater than 30 µM and 5.51 µM, respectively.

The term AC50 denotes the concentration giving half of the maximal activity seen.
